The record followed here is ChEMBL document CHEMBL5291721, “A preclinical secondary pharmacology resource illuminates target-adverse drug reaction associations of marketed drugs” (Nat Commun, 2023).

For experiment [1], the target named is T1, Androgen receptor (Rattus norvegicus, UniProt P15207).
T1 sequence (P15207 whole entry): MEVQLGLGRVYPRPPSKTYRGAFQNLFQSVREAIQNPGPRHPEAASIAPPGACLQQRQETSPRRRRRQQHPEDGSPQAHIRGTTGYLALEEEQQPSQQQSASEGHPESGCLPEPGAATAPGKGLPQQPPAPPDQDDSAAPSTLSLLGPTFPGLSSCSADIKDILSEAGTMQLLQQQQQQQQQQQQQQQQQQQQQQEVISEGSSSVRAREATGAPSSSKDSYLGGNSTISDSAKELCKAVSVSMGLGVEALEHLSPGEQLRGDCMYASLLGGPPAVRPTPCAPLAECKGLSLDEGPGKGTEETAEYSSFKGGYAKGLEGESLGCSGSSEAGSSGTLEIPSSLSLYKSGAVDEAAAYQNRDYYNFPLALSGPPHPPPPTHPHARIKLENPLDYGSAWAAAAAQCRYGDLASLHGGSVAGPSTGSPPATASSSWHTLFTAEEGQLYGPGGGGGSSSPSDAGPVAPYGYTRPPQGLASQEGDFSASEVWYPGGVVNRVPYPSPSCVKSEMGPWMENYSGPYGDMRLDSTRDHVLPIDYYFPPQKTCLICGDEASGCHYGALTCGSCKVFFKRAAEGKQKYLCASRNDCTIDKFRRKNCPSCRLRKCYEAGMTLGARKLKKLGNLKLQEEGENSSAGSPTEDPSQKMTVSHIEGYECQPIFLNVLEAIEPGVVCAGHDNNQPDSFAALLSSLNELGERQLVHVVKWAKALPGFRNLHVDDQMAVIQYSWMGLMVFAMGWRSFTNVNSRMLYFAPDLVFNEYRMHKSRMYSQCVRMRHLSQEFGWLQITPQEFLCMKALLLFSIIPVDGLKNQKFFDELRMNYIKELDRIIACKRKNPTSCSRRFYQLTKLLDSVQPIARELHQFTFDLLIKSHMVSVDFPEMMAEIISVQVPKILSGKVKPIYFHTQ
The format is functional.

Experiment [2] concerns the target Epidermal growth factor receptor (Homo sapiens, UniProt P00533). The format is functional.
In experiment [3] the target is T2, Estrogen receptor (Homo sapiens, UniProt P03372).
T2 sequence (P03372 whole entry): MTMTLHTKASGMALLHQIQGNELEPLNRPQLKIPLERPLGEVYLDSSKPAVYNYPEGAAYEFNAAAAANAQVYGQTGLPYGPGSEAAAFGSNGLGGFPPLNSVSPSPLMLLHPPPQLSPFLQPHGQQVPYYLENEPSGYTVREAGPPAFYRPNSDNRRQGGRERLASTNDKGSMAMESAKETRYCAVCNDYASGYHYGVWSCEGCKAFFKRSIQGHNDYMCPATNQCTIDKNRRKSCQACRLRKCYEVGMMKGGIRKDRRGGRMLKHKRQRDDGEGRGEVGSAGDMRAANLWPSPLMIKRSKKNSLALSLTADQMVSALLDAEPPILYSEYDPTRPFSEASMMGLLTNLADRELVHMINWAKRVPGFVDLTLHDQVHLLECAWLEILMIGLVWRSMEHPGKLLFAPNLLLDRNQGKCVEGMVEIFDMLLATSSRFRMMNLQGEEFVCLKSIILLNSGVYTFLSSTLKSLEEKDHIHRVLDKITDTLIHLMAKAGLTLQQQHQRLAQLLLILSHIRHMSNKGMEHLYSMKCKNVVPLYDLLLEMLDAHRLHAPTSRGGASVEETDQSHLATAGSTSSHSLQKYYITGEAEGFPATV
The format is functional.

Experiment [4] concerns the target T3, Glucocorticoid receptor (Homo sapiens, UniProt P04150).
T3 sequence (P04150 whole entry): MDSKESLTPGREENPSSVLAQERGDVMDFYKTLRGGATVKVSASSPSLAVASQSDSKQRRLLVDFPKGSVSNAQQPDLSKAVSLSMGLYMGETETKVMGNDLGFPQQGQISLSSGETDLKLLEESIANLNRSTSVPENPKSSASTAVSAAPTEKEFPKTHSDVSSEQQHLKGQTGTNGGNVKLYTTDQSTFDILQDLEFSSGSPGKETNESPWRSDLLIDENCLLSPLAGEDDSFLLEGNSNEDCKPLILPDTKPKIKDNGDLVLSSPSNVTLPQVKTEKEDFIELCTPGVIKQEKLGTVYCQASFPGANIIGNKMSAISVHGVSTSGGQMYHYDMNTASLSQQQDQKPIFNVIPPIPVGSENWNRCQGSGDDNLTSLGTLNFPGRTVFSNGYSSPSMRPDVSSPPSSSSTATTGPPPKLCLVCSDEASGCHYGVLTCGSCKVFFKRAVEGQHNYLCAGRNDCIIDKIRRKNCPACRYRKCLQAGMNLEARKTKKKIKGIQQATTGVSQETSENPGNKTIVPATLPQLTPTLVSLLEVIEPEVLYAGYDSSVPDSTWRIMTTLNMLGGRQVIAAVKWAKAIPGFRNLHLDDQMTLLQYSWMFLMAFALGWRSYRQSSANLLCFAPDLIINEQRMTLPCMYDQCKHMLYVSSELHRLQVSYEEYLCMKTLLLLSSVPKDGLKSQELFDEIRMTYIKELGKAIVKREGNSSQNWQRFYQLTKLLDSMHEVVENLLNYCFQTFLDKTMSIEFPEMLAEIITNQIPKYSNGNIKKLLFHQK
The format is functional.

Experiment [5] concerns the target Melanocortin receptor 4 (Homo sapiens, UniProt P32245).
For experiment [6], the target named is T4, Alpha-1A adrenergic receptor (Homo sapiens, UniProt P35348).
T4 sequence (P35348 whole entry): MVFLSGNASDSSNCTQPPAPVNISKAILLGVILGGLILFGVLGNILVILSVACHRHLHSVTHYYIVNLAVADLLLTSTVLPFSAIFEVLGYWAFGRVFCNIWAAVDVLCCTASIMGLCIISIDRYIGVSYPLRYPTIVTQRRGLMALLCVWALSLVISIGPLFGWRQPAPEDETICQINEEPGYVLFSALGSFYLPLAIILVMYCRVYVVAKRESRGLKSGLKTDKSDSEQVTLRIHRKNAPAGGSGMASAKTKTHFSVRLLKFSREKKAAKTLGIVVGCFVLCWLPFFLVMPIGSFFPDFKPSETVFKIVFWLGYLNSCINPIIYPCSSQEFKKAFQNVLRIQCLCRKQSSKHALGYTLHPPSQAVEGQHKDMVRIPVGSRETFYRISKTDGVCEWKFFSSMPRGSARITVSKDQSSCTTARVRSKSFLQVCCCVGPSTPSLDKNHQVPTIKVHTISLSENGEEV
Note: assay procedure not described here.

Sequence of Epidermal growth factor receptor (P00533 whole entry): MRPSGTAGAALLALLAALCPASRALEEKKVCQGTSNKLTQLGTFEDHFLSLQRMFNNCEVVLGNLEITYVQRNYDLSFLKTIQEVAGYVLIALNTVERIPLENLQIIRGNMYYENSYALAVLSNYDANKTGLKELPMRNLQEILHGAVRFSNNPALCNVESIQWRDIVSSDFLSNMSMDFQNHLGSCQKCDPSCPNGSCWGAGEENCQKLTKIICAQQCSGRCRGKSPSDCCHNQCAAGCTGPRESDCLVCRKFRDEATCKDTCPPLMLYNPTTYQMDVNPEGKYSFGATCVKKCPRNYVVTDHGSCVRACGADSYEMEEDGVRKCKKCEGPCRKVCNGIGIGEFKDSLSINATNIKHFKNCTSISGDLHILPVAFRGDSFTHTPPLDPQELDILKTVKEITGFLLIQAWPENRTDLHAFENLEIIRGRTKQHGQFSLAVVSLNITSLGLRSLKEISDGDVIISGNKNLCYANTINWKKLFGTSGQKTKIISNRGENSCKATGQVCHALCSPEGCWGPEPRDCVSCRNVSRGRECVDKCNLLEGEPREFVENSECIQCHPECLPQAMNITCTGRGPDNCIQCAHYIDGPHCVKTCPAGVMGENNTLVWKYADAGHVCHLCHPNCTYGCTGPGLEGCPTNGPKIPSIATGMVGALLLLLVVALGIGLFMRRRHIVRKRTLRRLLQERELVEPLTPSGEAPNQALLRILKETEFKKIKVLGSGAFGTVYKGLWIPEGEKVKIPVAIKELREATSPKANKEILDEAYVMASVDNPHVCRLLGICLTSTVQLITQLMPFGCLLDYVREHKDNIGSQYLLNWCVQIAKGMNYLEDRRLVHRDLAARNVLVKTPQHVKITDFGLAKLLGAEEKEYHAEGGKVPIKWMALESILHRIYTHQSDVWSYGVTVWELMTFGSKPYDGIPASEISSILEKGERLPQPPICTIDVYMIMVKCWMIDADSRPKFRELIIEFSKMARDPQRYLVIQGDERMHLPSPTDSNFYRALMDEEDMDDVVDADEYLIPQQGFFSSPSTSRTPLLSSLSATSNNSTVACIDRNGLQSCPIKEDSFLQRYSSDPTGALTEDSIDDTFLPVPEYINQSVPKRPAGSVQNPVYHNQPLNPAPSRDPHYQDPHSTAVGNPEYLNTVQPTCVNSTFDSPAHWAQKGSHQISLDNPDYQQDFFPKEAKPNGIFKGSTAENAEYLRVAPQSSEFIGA
Sequence of Melanocortin receptor 4 (P32245 whole entry): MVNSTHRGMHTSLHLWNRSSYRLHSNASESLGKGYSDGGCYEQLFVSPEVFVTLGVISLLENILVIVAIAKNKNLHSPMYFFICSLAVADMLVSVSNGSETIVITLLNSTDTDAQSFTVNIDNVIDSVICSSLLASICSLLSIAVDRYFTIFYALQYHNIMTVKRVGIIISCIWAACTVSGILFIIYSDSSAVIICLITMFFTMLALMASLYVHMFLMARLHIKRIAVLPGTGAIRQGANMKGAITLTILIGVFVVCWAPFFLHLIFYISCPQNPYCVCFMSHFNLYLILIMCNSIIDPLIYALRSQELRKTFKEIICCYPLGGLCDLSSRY

In the case of `C=C(C)[C@@H]1CCC(C)=C[C@H]1c1c(O)cc(CCCCC)cc1O` [CANNABIDIOL], the half-maximal activity concentration (AC50) in experiment [1], in experiment [2], in experiment [3] and in experiment [4] was over 30 µM each time.
On to `C[C@H]1Oc2cc(cnc2N)-c2c(nn(C)c2C#N)CN(C)C(=O)c2ccc(F)cc21` [LORLATINIB], for which the AC50 is over 30 µM in experiment [1], 2.9 µM in experiment [2], over 30 µM in experiment [3] and over 30 µM in experiment [4].
Turning to `CCCN(CCc1cccs1)[C@H]1CCc2c(O)cccc2C1` [ROTIGOTINE], the half-maximal activity concentration (AC50) in experiment [1], in experiment [2], in experiment [3] and in experiment [4] was over 30 µM each time.
With `CC(=O)S[C@@H]1CC2=CC(=O)CC[C@]2(C)[C@H]2CC[C@@]3(C)[C@@H](CC[C@@]34CCC(=O)O4)[C@H]12` [SPIRONOLACTONE], the half-maximal activity concentration (AC50) in experiment [2] is over 30 µM; in experiment [3] it was over 30 µM; in experiment [5], over 30 µM; in experiment [4] it was over 30 µM; in experiment [6], over 10 µM.
